From patent US20240262815A1, “HETEROARYL DERIVATIVE, METHOD FOR PREPARING SAME, AND PHARMACEUTICAL COMPOSITION COMPRISING SAME AS ACTIVE INGREDIENT” (VORONOI INC., priority 2021, published 2024)

How the values were obtained:
SK-BR-3 cancer cells = test: Inhibitory activity against proliferation of SK-BR-3 cancer cells (CellTiter-Glo); assay type: cell-based; conditions: Homo sapiens, SK-BR-3, 120 h, ErbB2-overexpressing SK-BR-3 cells, 120 hours after treatment
In short: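 GI50 derived from % growth relative to control, measured by CellTiter-Glo luminescence after 120 h compound exposure (12 concentrations, 0.2 nM-5 μM final, n=3). BT-474 grown in RPMI-1640/20% FBS, SK-BR-3 in McCOY'S 5A/10% FBS; seeding 48 h pre-treatment.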

BT-474 cancer cells = test: Inhibitory activity against proliferation of BT-474 cancer cells (CellTiter-Glo); assay type: cell-based; conditions: Homo sapiens, BT-474 ErbB2-overexpressing cancer cells, 120 hours after treatment
Method: To evaluate the inhibitory activity of a compound according to the present invention against the proliferation of ErbB2-overexpressing cancer cells, the following experiment were performed.
10% FBS-added McCOY'S 5A was used for SK-BR-3 cancer cells. 20% FBS-added RPMI-1640 was used for BT-474 cancer cells. Transduced Ba/F3 cells were cultured in a RPMI-1640 medium to which 1 μg/ml puromycin (Invitrogen) was added.
48 hours before compound treatment, each type of the SK-BR-3 and BT-474 cells were seeded at 5,000 cells/well in a white clear bottom 96 well plate (Corning). The compound was diluted in dimethyl sulfoxide (SK-BR-3: 3-fold dilution, a total of 12 concentrations, BT-474: […], a total of 12 concentrations) and injected at 1 μl to have the final concentration of 0.2 nM to 5 μM. As for measurement of live cells, 120 hours after treatment with the compound, a CellTiter-Glo luminescent cell-viability reagent (Promega) was used to store the cells at room temperature for 10 minutes, followed by measurement of luminescence using a reader (SynergyNeo, Biotek). Each test was repeated three times.
The result values were calculated as a cell growth rate (%) compared to the control group. A graph was plotted using the GraphPad Prism version 8.3.0 program, and GI50 values were calculated.

SMILES	GI50 (SK-BR-3 cancer cells)	GI50 (BT-474 cancer cells)
C=CC(=O)Nc1cc(Nc2cc(N3OCC[C@@H]3c3cccc(-c4ccccc4)c3)ncn2)c(OC)cc1N(C)CCN(C)C [Example 173, (R)-N-(5-((6-(3-([1,1′-biphenyl]-3-yl)isoxazolidin-2-yl)pyrimidin-4-yl)amino)-2-((2-(dimethylamino)-ethyl)(methyl)-amino)-4-methoxy-phenyl)acrylamide]	< 50 nM	< 50 nM
C=CCN1CCN(c2cc(OC)c(Nc3cc(N4OCC[C@@H]4c4cccc(-c5ccccc5)c4)ncn3)cc2NC(=O)C=C)CC1 [Example 174, (R)-N-(5-((6-(3-([1,1′-biphenyl]-3-yl)isoxazolidin-2-yl)pyrimidin-4-yl)amino)-2-(4-allylpiperazin-1-yl)-4-methoxy-phenyl)acrylamide]	< 50 nM	< 50 nM
C=CC(=O)Nc1cc(Nc2cc(N3OCC[C@@H]3c3cccc(-c4ccccc4)c3)ncn2)c(OC)cc1N1CCO[C@@H](C)C1 [Example 175, N-(5-((6-((R)-3-([1,1′-biphenyl]-3-yl)isoxazolidin-2-yl)pyrimidin-4-yl)-amino)-4-methoxy-2-((S)-2-methyl-morpholino)phen-yl)acrylamide]	< 50 nM	< 50 nM
C=CC(=O)Nc1cc(Nc2cc(N3OCC[C@@H]3c3cccc(-c4ccccc4)c3)ncn2)c(OC)cc1N1CCO[C@H](C)C1 [Example 176, N-(5-((6-((R)-3-([1,1′-biphenyl]-3-yl)isoxazolidin-2-yl)pyrimidin-4-yl)-amino)-4-methoxy-2-((R)-2-methyl-morpholino)phen-yl)acrylamide]	< 50 nM	< 50 nM
C=CC(=O)Nc1cc(Nc2cc(N3OCCC3c3cccc(-c4cnc5ccnn5c4)c3)ncn2)c(OC)cc1N1CCN(C)CC1 (stereo not drawn) [Example 201, N-(4-methoxy-2-(4-methylpiper-azin-1-yl)-5-((6-(3-(3-(pyrazolo-[1,5-a]pyrimidin-6-yl)phenyl)-isoxazolidin-2-yl)-pyrimidin-4-yl)-amino)phenyl)-acrylamide]	< 50 nM	< 50 nM
C=CC(=O)Nc1cc(Nc2cc(N3OCCC3c3cccc(-c4ccc(C)s4)c3)ncn2)c(OC)cc1N(C)CCN(C)C (stereo not drawn) [Example 213, N-(2-((2-(dimeth-ylamino)ethyl)-(methyl)amino)-4-methoxy-5-((6-(3-(3-(5-methylthio-phen-2-yl)phenyl)-isoxazolidin-2-yl)-pyrimidin-4-yl)-amino)phenyl)-acrylamide]	50 to 500 nM	50 to 500 nM
C=CC(=O)Nc1cc(Nc2cc(N3OCC[C@@H]3c3cccc(-c4ccccc4)c3)ncn2)c(OC)cc1N1CCN(CC)CC1 [Example 216, (R)-N-(5-((6-(3-([1,1′-biphenyl]-3-yl)isoxazolidin-2-yl)pyrimidin-4-yl)-amino)-2-(4-ethyl-piperazin-1-yl)-4-methoxyphenyl)-acrylamide]	< 50 nM	< 50 nM
C=CC(=O)Nc1cc(Nc2cc(N3OCC[C@@H]3c3cc(F)cc(Oc4ccn(C)n4)c3)ncn2)c(OC)cc1N1CCC(N2CCN(C3CC3)CC2)CC1 [Example 219, (R)-N-(2-(4-(4-cyclopropylpiper-azin-1-yl)piper-idin-1-yl)-5-((6-(3-(3-fluoro-5-((1-methyl-1H-pyr-azol-3-yl)oxy)-phenyl)isoxazol-idin-2-yl)pyrim-idin-4-yl)amino)-4-methoxyphen-yl)acrylamide]	< 50 nM	< 50 nM
C=CC(=O)Nc1cc(Nc2cc(N3OCC[C@@H]3c3cc(F)cc(Oc4cccc(F)c4)c3)ncn2)c(OC)cc1N1CCN(C)[C@H](C)C1 [Example 221, N-(2-((R)-3,4-dimethylpiper-azin-1-yl)-5-((6-((R)-3-(3-fluoro-5-(3-fluorophen-oxy)phenyl)-isox-azolidin-2-yl)pyr-imidin-4-yl)-amino)-4-methoxy-phenyl)acrylamide]	< 50 nM	< 50 nM
C=CC(=O)Nc1cc(Nc2cc(N3OCC[C@@H]3c3cc(F)cc(Oc4cccc(F)c4)c3)ncn2)c(OC)cc1N1CCN(C)[C@@H](C)C1 [Example 223, N-(2-((S)-3,4-dimethylpiperazin-1-yl)-5-((6-((R)-3-(3-fluoro-5-(3-fluorophenoxy)-phenyl)isoxazol-idin-2-yl)pyrim-idin-4-yl)amino)-4-methoxyphen-yl)acrylamide]	< 50 nM	< 50 nM
C=CC(=O)Nc1cc(Nc2cc(N3OCC[C@@H]3c3cc(F)cc(Oc4cccc(F)c4)c3)ncn2)c(OC)cc1N1CCC(N(C)C)CC1 [Example 224, (R)-N-(2-(4-(dimethylamino)-piperidin-1-yl)-5-((6-(3-(3-fluoro-5-(3-fluorophenoxy)-phenyl)isoxazol-idin-2-yl)pyrim-idin-4-yl)amino)-4-methoxyphen-yl)acrylamide]	< 50 nM	< 50 nM
C=CC(=O)Nc1cc(Nc2cc(N3OCC[C@@H]3c3cccc(Oc4cc(F)cc(F)c4)c3)ncn2)c(OC)cc1N1CCN(C)CC1 [Example 225, (R)-N-(5-((6-(3-(3-(3,5-difluoro-phenoxy)phenyl)-isoxazolidin-2-yl)pyrimidin-4-yl)amino)-4-methoxy-2-(4-methylpiperazin-1-yl)phenyl)-acrylamide]	< 50 nM	< 50 nM
COc1cc(F)c(NC(=O)/C=C/CN(C)C)cc1Nc1cc(N2OCC[C@@H]2c2cccc(-c3cccc(F)c3)c2)ncn1 [Example 335, (R,E)-4-(dimethyl-amino)-N-(2-fluoro-5-((6-(3-(3′-fluoro-[1,1′-biphen-yl]-3-yl)isoxazol-idin-2-yl)pyrim-idin-4-yl)amino)-4-methoxyphen-yl)but-2-enamide]		< 50 nM
C=CC(=O)Nc1cc(Nc2cc(N3OCC[C@@H]3c3cccc(-c4cccc(F)c4)c3)ncn2)c(OC)cc1N1CCN(CCO)CC1 [Example 336, (R)-N-(5-((6-(3-(3′-fluoro-[1,1′-biphenyl]-3-yl)-isoxazolidin-2-yl)-pyrimidin-4-yl)-amino)-2-(4-(2-hydroxyethyl)-piperazin-1-yl)-4-methoxyphenyl)-acrylamide]		< 50 nM
C=CC(=O)Nc1cc(Nc2cc(N3OCC[C@@H]3c3cccc(-c4cccc(C)c4C)c3)ncn2)c(OC)cc1N1CCN(C)CC1 [Example 337, (R)-N-(5-((6-(3-(2′,3′-dimethyl-[1,1′-biphenyl]-3-yl)isoxazolidin-2-yl)pyrimidin-4-yl)-amino)-4-methoxy-2-(4-methylpiper-azin-1-yl)phenyl)-acrylamide]		< 50 nM
C=CC(=O)Nc1cc(Nc2cc(N3OCC[C@@H]3c3cccc(-c4cccc(C(=O)OC)c4)c3)ncn2)c(OC)cc1N1CCN(C)CC1 [Example 338, methyl (R)-3′-(2-(6-((5-acrylamido-2-methoxy-4-(4-methylpiperazin-1-yl)phenyl)-amino)pyrimidin-4-yl)isoxazolidin-3-yl)-[1,1′-biphen-yl]-3-carboxylate]		< 50 nM
C=CC(=O)Nc1cc(Nc2cc(N3OCC[C@@H]3c3cccc(-c4cccc(F)c4)c3)ncn2)c(OC)cc1N1CCC2(CC1)COC2 [Example 339, (R)-N-(5-((6-(3-(3′-fluoro-[1,1′-biphenyl]-3-yl)-isoxazolidin-2-yl)-pyrimidin-4-yl)-amino)-4-methoxy-2-(2-oxa-7-azas-piro[3.5]nonan-7-yl)phenyl)acryl-amide]		< 50 nM
C=CC(=O)Nc1cc(Nc2cc(N3OCC[C@@H]3c3cccc(-c4cccc(F)c4F)c3)ncn2)c(OC)cc1N1CCN(C2COC2)CC1 [Example 340, (R)-N-(5-((6-(3-(2′,3′-difluoro-[1,1′-biphenyl]-3-yl)isoxazolidin-2-yl)pyrimidin-4-yl)-amino)-4-methoxy-2-(4-(oxetan-3-yl)-piperazin-1-yl)-phenyl)acrylamide]		< 50 nM
C=CC(=O)Nc1cc(Nc2cc(N3OCC[C@@H]3c3cccc(-c4cccc(F)c4)c3)ncn2)c(OC)cc1N1CC2(C1)CN(C1COC1)C2 [Example 341, (R)-N-(5-((6-(3-(3′-fluoro-[1,1′-biphenyl]-3-yl)-isoxazolidin-2-yl)-pyrimidin-4-yl)-amino)-4-methoxy-2-(6-(oxetan-3-yl)-2,6-diazaspiro-[3.3]heptan-2-yl)-phenyl)acrylamide]		< 50 nM
C=CC(=O)Nc1cc(Nc2cc(N3OCC[C@@H]3c3cccc(-c4cccc(C(=O)N(C)C)c4)c3)ncn2)c(OC)cc1N1CCN(C)CC1 [Example 342, (R)-3′-(2-(6-((5-acrylamido-2-methoxy-4-(4-methylpiperazin-1-yl)phenyl)-amino)pyrimidin-4-yl)isoxazolidin-3-yl)-N,N-dimeth-yl-[1,1′-biphenyl]-3-carboxamide]		< 50 nM
C=CC(=O)Nc1cc(Nc2cc(N3OCC[C@@H]3c3cccc(-c4cccc(F)c4)c3)ncn2)c(OC)cc1N1CCC2(CC1)CN(C)C2 [Example 343, (R)-N-(5-((6-(3-(3′-fluoro-[1,1′-biphenyl]-3-yl)-isoxazolidin-2-yl)-pyrimidin-4-yl)-amino)-4-methoxy-2-(2-methyl-2,7-diazaspiro[3.5]-nonan-7-yl)phen-yl)acrylamide]		< 50 nM
